Measurements published in ChEMBL document CHEMBL5375979, “Chemical, Biochemical, Cellular, and Physiological Characterization of Leucettinib-21, a Down Syndrome and Alzheimer's Disease Drug Candidate” (J Med Chem, 2023).

Columns and labels:
[1] = target: Cyclin-dependent kinase-like 5 (Homo sapiens, UniProt O76039)
Description: Inhibition of human CDKL5 assessed as remaining activity by eurofins-cerep kinase profiler analysis

[2] = target: Dual specificity protein kinase CLK4 (Homo sapiens, UniProt Q9HAZ1)
[3] = target: Mitogen-activated protein kinase 15 (Homo sapiens) (UniProt Q8TD08); conditions: dose 10.0 µM
Sequence of Mitogen-activated protein kinase 15 (Homo sapiens) (Q8TD08 whole entry): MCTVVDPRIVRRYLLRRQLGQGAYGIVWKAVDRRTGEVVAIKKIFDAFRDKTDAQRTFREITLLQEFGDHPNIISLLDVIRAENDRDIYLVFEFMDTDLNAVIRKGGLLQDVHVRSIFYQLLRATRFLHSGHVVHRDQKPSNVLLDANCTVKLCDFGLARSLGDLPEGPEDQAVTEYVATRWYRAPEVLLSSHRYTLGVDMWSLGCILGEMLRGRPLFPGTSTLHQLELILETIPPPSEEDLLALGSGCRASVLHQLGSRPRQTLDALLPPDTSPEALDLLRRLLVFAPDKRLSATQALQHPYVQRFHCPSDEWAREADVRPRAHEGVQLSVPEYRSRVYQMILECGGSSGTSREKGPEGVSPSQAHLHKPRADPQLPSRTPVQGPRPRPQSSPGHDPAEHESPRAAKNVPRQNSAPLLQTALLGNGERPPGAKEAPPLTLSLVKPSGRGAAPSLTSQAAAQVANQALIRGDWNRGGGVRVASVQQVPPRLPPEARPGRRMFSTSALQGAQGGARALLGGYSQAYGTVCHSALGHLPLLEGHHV

[4] = target: Dual specificity protein kinase CLK1 (Homo sapiens, UniProt P49759)
Sequence of Dual specificity protein kinase CLK1 (P49759 whole entry): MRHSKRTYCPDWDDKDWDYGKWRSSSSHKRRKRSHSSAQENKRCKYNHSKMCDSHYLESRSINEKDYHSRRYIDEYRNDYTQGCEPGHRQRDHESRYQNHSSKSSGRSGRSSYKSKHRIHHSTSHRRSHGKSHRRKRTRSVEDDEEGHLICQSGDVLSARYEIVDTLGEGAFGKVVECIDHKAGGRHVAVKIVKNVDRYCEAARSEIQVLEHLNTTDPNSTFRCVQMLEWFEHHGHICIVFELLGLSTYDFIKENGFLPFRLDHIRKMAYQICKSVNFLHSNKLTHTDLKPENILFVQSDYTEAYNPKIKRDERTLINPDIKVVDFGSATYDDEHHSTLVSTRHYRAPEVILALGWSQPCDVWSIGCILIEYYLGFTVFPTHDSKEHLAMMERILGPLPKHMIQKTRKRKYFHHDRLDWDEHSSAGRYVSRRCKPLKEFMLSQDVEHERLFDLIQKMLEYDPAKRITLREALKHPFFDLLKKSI

[5] = target: Homeodomain-interacting protein kinase 2 (Homo sapiens, UniProt Q9H2X6); conditions: dose 10.0 µM
Sequence of Homeodomain-interacting protein kinase 2 (Q9H2X6 whole entry, looked up): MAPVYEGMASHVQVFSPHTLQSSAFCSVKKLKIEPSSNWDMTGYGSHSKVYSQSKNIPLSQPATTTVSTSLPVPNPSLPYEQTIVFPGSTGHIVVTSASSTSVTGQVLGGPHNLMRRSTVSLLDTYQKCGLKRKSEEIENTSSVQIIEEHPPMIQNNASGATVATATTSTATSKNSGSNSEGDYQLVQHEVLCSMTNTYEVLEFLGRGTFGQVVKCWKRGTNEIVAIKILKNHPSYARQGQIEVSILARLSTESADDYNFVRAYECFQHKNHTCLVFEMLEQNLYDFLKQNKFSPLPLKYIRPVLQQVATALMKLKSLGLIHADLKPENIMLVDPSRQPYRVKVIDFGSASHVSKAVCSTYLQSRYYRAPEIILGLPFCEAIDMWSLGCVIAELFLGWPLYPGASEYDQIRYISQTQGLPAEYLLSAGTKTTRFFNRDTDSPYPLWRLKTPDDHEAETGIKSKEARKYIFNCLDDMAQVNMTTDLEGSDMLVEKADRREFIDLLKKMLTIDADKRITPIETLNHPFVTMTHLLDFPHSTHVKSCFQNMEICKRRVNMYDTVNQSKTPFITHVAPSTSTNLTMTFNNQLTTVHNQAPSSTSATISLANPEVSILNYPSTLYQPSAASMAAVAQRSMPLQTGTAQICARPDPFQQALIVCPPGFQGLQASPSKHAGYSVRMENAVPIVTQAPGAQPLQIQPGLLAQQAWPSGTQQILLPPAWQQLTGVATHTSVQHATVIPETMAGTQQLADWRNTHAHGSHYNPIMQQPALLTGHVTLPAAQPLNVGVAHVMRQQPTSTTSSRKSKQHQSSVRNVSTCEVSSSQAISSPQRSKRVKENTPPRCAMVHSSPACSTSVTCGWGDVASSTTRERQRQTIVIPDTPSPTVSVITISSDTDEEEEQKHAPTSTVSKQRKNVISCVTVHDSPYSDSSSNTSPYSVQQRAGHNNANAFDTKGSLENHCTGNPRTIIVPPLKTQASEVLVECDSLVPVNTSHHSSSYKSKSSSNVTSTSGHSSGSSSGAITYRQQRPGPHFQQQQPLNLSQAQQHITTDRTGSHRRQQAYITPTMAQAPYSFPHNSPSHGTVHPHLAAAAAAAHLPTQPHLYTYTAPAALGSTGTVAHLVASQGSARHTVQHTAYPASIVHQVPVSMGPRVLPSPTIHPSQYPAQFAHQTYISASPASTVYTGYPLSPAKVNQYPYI

[6] = target: Casein kinase II subunit alpha (Homo sapiens) (UniProt P68400); conditions: dose 10.0 µM
Sequence of Casein kinase II subunit alpha (Homo sapiens) (P68400 whole entry, looked up): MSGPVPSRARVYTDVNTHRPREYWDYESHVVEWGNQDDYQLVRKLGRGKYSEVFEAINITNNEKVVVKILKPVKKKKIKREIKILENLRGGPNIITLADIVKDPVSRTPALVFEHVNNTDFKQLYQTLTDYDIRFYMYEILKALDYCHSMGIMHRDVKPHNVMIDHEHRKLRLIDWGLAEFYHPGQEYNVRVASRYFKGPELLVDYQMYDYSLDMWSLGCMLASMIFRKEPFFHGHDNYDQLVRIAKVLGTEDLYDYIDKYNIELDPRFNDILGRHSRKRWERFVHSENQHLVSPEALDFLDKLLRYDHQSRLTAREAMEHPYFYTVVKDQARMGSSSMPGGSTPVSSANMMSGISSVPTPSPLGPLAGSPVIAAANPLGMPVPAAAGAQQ

[7] = target: T1, Dual specificity tyrosine-phosphorylation-regulated kinase 2 (Homo sapiens, UniProt Q92630)
T1 sequence (Q92630 whole entry): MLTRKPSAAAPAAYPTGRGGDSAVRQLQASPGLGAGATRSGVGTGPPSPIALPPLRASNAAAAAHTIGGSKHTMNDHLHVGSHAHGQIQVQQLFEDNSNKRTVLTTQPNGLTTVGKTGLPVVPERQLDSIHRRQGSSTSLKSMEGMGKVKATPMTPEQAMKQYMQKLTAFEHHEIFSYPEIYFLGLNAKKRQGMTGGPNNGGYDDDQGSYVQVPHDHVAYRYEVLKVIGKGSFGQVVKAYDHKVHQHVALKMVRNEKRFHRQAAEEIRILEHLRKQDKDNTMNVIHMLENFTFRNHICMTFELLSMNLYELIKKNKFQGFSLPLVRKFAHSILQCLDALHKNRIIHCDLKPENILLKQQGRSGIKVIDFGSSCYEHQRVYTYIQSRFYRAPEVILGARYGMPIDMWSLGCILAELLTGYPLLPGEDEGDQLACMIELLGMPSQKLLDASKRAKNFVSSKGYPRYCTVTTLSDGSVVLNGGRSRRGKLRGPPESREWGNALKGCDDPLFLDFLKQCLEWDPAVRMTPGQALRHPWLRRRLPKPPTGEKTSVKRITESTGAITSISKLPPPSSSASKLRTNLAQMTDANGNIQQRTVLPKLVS
Description: Inhibition of human DYRK2 assessed as remaining activity by eurofins-cerep kinase profiler analysis

Sequence of Cyclin-dependent kinase-like 5 (O76039 whole entry): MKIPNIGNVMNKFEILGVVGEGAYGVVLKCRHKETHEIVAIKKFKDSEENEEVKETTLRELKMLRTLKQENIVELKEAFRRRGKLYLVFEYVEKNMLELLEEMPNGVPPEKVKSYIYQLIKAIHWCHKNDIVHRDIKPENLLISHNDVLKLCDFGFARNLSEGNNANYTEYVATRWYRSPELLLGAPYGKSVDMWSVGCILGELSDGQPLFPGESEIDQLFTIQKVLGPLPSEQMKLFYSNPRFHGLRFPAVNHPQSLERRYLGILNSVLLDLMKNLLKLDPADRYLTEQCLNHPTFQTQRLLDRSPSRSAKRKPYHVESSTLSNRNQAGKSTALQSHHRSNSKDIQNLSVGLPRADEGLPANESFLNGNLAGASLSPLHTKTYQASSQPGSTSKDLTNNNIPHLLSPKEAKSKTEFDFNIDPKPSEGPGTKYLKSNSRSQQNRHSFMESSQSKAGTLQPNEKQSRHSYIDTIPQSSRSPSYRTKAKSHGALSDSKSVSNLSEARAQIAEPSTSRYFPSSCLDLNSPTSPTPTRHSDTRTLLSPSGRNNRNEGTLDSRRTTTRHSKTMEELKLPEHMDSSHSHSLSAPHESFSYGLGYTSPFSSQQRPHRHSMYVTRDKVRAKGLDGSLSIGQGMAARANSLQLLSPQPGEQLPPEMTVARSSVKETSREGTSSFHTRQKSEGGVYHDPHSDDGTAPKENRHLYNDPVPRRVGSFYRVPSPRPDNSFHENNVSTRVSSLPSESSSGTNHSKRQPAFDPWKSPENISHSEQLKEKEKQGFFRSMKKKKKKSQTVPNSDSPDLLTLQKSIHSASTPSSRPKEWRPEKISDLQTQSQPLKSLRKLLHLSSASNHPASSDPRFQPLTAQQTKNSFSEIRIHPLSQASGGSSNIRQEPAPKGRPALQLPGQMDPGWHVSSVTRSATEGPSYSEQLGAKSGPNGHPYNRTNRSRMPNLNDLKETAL
Sequence of Dual specificity protein kinase CLK4 (Q9HAZ1 whole entry): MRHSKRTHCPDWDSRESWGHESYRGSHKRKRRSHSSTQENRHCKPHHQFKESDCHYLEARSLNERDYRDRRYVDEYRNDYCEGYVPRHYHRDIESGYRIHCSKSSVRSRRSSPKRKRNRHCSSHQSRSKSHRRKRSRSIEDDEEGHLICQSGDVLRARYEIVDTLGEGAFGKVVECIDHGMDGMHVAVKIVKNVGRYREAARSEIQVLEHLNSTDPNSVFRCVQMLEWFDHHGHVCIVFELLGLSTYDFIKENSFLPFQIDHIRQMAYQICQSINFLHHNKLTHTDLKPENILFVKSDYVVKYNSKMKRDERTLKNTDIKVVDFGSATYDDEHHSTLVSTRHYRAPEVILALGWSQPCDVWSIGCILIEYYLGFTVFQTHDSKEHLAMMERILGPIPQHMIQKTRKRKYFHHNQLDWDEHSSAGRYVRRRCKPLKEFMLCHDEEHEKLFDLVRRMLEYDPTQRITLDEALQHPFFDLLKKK

In the case of COC[C@@H](CC(C)C)NC1=N/C(=C\c2ccc3scnc3c2)C(=O)N1, the IC50 [1] is reported as > 10000 nM, the IC50 [2] is reported as > 1000 nM and the ΔTm [3] is reported as 4.7 °C. The IC50 [4] was > 1000 nM, the ΔTm [5] was 0.6 °C and the ΔTm [6] was 1.4 °C. The IC50 [7] was > 1000 nM.
